From US20040067241A1, “Comtrol a/k/a Virex antiviral composition” (priority 2002, published 2004)

Settings: 75 mg/kg/day i.n.

NC(=O)c1ncn([C@@H]2O[C@H](CO)[C@@H](O)[C@H]2O)n1 [Ribavirin]
Tox Controls Surv/Total (bid x 5, uninfected mice): 3/3 | Tox Controls Mean Host Weight Change (initial weight vs weight 18 h after final treatment): -1.7 g
